The values that follow come from patent publication EP4463162B1, “CONNEXIN 43 FOR USE IN TREATING BRCA1/2-MUTATED CANCER” (Fundación Profesor Novoa Santos, priority 2022, dated 2023).

Type in all cases: cell-based, human
The subject of one test is HCC1937 cells. Put plainly: Intracellular reactive oxygen species (ROS) measurement (DCFDA). The conditions noted are these: 96 h. Here is the method: Then, ROS production was determined using the DCFDA/H2DCFDA - Cellular ROS Assay Kit (Abcam) following manufacturer's instructions. […] Afterwards, all cell conditions were washed with 100 µL/well of 1X Buffer and then stained with 100 µL/well of 25 µM 2',7' -dichlorofluorescin diacetate (DCFDA) working solution for 45 min at 37 °C in the dark. DCFDA is a fluorogenic dye, deacetylated by cellular esterases to a non-fluorescent compound, eventually oxidized by ROS into the highly fluorescent 2', 7' -dichlorofluorescein (DCF). DCFDA solution was removed and cells were washed once with phenol red-free DMEM with 10 % FBS. They were left for 1 h at 37 °C and fluorescence was measured in a Synergy HTX plate reader (BioTek) at 485/+-20 nm (excitation) and 528/+-20 nm (emission).
After ROS measurement, CCK-8 proliferation assay was performed. Briefly, medium was removed and replenished with 100 µL/well of complete RPMI. 10 µL of CCK-8 reagent were added to each well, and cells were incubated at 37 °C in the dark for 3 h. Absorbance was measured at 450 nm in a NanoQuant Infinite 200 plate reader (Tecan).
Background fluorescence of phenol red-free DMEM with 10 % FBS was subtracted from all ROS fluorescence values, which were then normalized against their respective proliferation absorbance values. Each experimental condition was further normalized against its untreated counterpart. […]

A further test has as its system RAD51 and 53BP1. The test can be described thus: RAD51 and 53BP1 immunofluorescence. The conditions noted are these: olaparib 100 µM, 96 h. Here is the method:
2 000-10 000 cells were plated on glass coverslips (Thermo Fisher Scientific) previously coated with poly-D-lysine hydrobromide (Sigma-Aldrich) and cultured until they were approximately 80 % confluent. They were washed with PBS, fixed with 4 % paraformaldehyde (PFA, Sigma-Aldrich) in PBS for 15 min at room temperature and rinsed twice with PBS. Next, cells were incubated with 0.1 M glycine (Sigma-Aldrich) in distilled water to quench PFA for 10 min at room temperature, and then their membranes were permeabilized with 0.2 % Triton X-100 (Sigma-Aldrich) in PBS for 10 min at room temperature. After two 5 min PBS washes, potential nonspecific antibody binding sites were blocked with 1 % bovine serum albumin (BSA; Sigma-Aldrich) diluted in PBST (PBS+0.1 % Tween 20; Sigma-Aldrich) for 30 min at room temperature. Cells were incubated overnight at 4 °C in the dark with primary antibody (see references in Table 3) diluted in 1 % BSA in PBST. The next day, cells were rinsed three times in PBS for 10 min each, and then incubated 1 h at room temperature in the dark with secondary antibody (see references in Table 3) diluted in 1 % BSA in PBST. After that, they were washed three times with PBS for 5 min each, and their nuclei were stained with 1 µg/mL Hoechst (Invitrogen, Thermo Fisher Scientific) diluted in PBS for 10 min. […]

Another test has as its system p21. The test can be described thus: Western blot against senescence marker p21. The conditions noted are these: Cx43_HCC1937, 96 h, 100 µM olaparib. The protocol: Protein extracts were mixed with loading buffer, which consisted of 10 % (v/v) β-mercaptoethanol (Sigma-Aldrich), 10 % SDS, 50 % (v/v) glycerol, 200 mM Tris-HCl pH 6.8 and 0.1 % bromophenol blue (Sigma-Aldrich). They were boiled at 95 °C for 8 min and 20-30 µg protein were loaded into 8, 10 or 15 % acrylamide/bis-acrylamide self-made gels, depending on the molecular weight of the target protein/s to investigate. Gels were run at 80 V for approximately 2 h using a Mini-PROTEAN Tetra electrophoresis system (BioRad), and then transferred to methanol-preactivated polyvinylidene fluoride (PVDF) membranes (Millipore) at 100 V and 4 °C for 1-1.5 h with a Mini Trans-Blot Electrophoretic Transfer Cell (BioRad). Afterwards, membranes with the transferred proteins were stained with ATX Ponceau S red staining solution (Sigma-Aldrich) for 10 min at room temperature, photographed in an Amersham Imager 600 (GE Healthcare) and unstained with distilled water. They were then blocked for 1 h at room temperature with 5 % skim milk (Sigma-Aldrich) diluted in TBST buffer (Tris-buffered saline TBS composed of 20 mM Tris and 150 mM NaCl, supplemented with 0.05 % (v/v) Tween-20, Sigma-Aldrich) with shaking. […] Ponceau staining and western blot images were analysed and their band intensities quantitated with Image J software. […]
Background: Immunoblotting shows a protein as a band on a membrane.

Molecules are shown by their SMILES.

Turning to `O=C(c1cc(Cc2n[nH]c(=O)c3ccccc23)ccc1F)N1CCN(C(=O)C2CC2)CC1` [Olaparib, olaparib], the ROS production entry in the test with HCC1937 cells (Cx43_HCC1937, olaparib 50 and 100 µM) is recorded as “increased”; in the test with HCC1937 cells (EV_HCC1937, olaparib 50 and 100 µM, dose-dependent), “diminished”. Further, the 53BP1 foci result with RAD51 and 53BP1 (EV and Cx43_HCC1937) is “seemed to rise upon olaparib treatment in both cell lines alike”. In addition, the RAD51 foci entry in the test with RAD51 and 53BP1 (EV vs Cx43_HCC1937) is “increased just in EV_HCC1937 cells”. The “senescence marker p21” value in the test on p21 was “significantly increased”.
